Test results published in patent publication EP0845478B1, “Reductive alkylation of glycopeptide antibiotics” (ELI LILLY AND COMPANY, priority 1996, dated 1998).
Entries after “also recorded” stand apart in the source; their conditions may differ.

How the values were obtained:
[1] = Solubility of copper salts in methanol, with pH; assay type: physicochemical; settings: for pH: pH of copper salt (0.165 mmol) in 50 mL methanol after 15 min stirring, before nucleus is added; for Salt Solubility in MeOH: copper salt (0.165 mmol) in 50 mL methanol, stirred at ambient temperature for 15 min
Method: (§1) The same copper salts were further evaluated for their solubility in methanol and for the solubility of the starting glycopeptide antibiotic in their presence. The procedure was as follows: the copper salt (0.165 mmol) was added to 50 mL methanol and stirred at ambient temperature for 15 min. Solubility data was recorded as well as the pH. […] Solubility and pH data was recorded.

[2] = Solubility of the starting glycopeptide antibiotic (nucleus) in methanol in the presence of the copper salt, with pH; assay type: physicochemical; settings: stirred 15 min; for pH: pH after addition of glycopeptide nucleus (0.26 mmol) to copper salt in 50 mL methanol; for nucleus solubility in presence of salt: Glycopeptide nucleus (0.55 g, 0.26 mmol) added to copper salt (0.165 mmol) in 50 mL methanol
Method: as §1

pH [1]	pH [2]	Salt Solubility in MeOH [1]	nucleus solubility in presence of salt [2]	SMILES
6.5	~6.7	–	–	CCCCC(CC)C(=O)[O-].CCCCC(CC)C(=O)[O-].[Cu+2] (centres unmarked) [Cu(2-ethylhexanoate)2]
4.4	6.2	soluble, clear lite blue	soluble, clear purple	O=C([O-])C(F)(F)F.O=C([O-])C(F)(F)F.[Cu+2] [Cu(O2CCF3)2]
6.5	~6.7	–	–	CC(=O)[O-].CC(=O)[O-].[Cu+2] [Cu(OAc)2]
2.8	5.9	soluble, clear yellow	soluble, clear purple	[Br][Cu][Br] [CuBr2]
3.2	6.6	soluble, clear colorless	slightly, cloudy purple	[Cl][Cu][Cl] [CuCl2]
3.7	6.2	soluble, clear colorless	slightly, cloudy purple	O.O.O.O.O.O=S(=O)([O-])[O-].[Cu+2] [CuSO4·5H2O]

SMILES	pH [1]	pH [2]	Salt Solubility in MeOH [1]	nucleus solubility in presence of salt [2]
[Cu+2].[OH-].[OH-] [Cu(OH)2]	6.2	7.0	nearly insoluble; also recorded: low, cloudy lite blue soln	slightly, cloudy lite blue
O=C([O-])CCCC1CCCCC1.O=C([O-])CCCC1CCCCC1.[Cu+2] [Cu(cyclohexanebutyrate)2]	6.0	~6.7	faint cloudiness, lite blue-green	complete dissolution; also recorded: soluble, clear purple
[F][Cu][F] [CuF2]	5.9	7.0	nearly insoluble; also recorded: low, cloudy white soln	slightly, cloudy pink
